Data: US12139498B1, “Positive allosteric modulators of the muscarinic acetylcholine receptor M4” (Vanderbilt University, priority 2023, dated 2024)
Read-outs that look alike come from different tables or passages of the source.

Molecular target: T1, Human M4 (Homo sapiens, UniProt P08173)
T1 sequence (P08173 1-479): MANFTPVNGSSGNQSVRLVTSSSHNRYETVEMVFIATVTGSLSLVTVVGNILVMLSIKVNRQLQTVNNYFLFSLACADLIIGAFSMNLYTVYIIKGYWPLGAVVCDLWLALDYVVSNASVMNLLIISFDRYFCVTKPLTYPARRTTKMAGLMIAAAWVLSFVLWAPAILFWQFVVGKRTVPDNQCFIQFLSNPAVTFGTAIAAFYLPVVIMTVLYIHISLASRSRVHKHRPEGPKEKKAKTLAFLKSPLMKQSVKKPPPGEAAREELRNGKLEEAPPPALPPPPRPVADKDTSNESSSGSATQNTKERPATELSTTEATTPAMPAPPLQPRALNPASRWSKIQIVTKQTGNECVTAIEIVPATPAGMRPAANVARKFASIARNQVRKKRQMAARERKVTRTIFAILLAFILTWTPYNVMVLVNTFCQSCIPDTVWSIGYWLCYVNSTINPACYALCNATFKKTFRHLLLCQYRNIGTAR
Test: Cellular cAMP Gi HTRF assay (agonist and potentiator modes)
Format: cell-based
Set-up: expressed in transfected cells; host or cells: CHO cells stably expressing human M4
Conditions: n = 2
Excerpt: Activation of the M4 receptor leads to the inhibition of cAMP production by coupling to Go proteins. To measure the level of CAMP inhibition by M4 allosteric modulators, a Homogeneous Time-Resolved Fluorescence (HTRF®) CAMP assay was employed using CHO cells stably expressing human or rat M4 receptors. The HTRF CAMP assay is a Time-Resolved Resonance Energy Transfer (TR-FRET) competitive immunoassay. Endogenous intracellular CAMP generated by cells competes with Europium cryptate-labeled cAMP (Europium donor, emission […]) for the binding to a cAMP antibody labeled with d2 (d2-acceptor, emission […]). Thus, the fluorescence emission ratio (665 nm/620 nm) is inversely proportional to the CAMP amount in the cells. Compound-mediated M4 activation results in an increase in HTRF ratio (665 nm/620 nm), indicative of a decrease in intracellular cAMP level. To monitor agonist activity, compounds were added to the M4 cells in the presence of an EC80 concentration of forskolin (adenylyl cyclase activator) which induces a submaximal intracellular cAMP level. To assess potentiator activity, compounds were added to the M4 cells with an EC50 concentration of forskolin in the presence of an EC20 concentration of acetylcholine. This functional assay allows determination of the potency and efficacy of compounds directly activating or potentiating the Gi/o-coupled M4 receptor; representative data are shown in Table 3.
Functional agonist and potentiator activities of compounds were determined by measuring cAMP levels in Chinese Hamster Ovary (CHO) cells stably expressing human or rat M4 muscarinic receptors using an HTRF CAMP Gi/o kit. Cells were maintained in F12 medium containing 10% FBS, 20 mM HEPES, 1× Antibiotic/Antimycotic, and G418 (500 μg/ml) in 37° C. humidified incubators in the presence of 5% CO2. The day before assay, the cells were trypsinized and resuspended in plating medium (growth medium without G418). The cells were plated to white, solid, flat-bottomed, 384 well plates at densities of 4,000 and 6,000 cells/10 μL/well, of human M4 and rat M4 cells, respectively. The cell plates were spun at 100×g for 1 min, then immediately placed in a 37° C. incubator in the presence of 5% CO2 overnight.
The next day, reagents were freshly diluted at a 2× concentration in assay buffer using F12 basal medium or stimulation buffer. All assay buffers contained 500 μM IBMX to block cAMP degradation. Activation of M4 by compounds was examined in cells stimulated with an EC80 concentration of forskolin to induce submaximal intracellular cAMP levels. Forskolin EC80 concentrations were determined from forskolin concentration response curves (CRCs) and ranged from 1.5 to 2.5 μM. […]

In the case of `Cc1c(N2CCc3nc(C4(F)CC4)sc3C2)nc2nn(C)c(=O)n2c1C` [Compound 70, 7-(2-(1-fluorocyclopropyl)-6,7-dihydrothiazolo[5,4-c]pyridin-5(4H)-yl)-2,5,6-trimethyl-[1,2,4]triazolo[4,3-a]pyrimidin-3(2H)-one], the “hM4_cAMP Activity Agonist % ACh Max” value (agonist mode, EC80 forskolin, no acetylcholine) is reported as 81 % ACh Max, the EC50 (agonist mode, EC80 forskolin, no acetylcholine, read-out: hM4_cAMP Activity Agonist EC50) is reported as 19 nM and the “hM4_cAMP Activity PAM % ACh Max” value (potentiator mode, forskolin plus EC20 acetylcholine) is reported as 74 % ACh Max. The EC50 (potentiator mode, forskolin plus EC20 acetylcholine, read-out: hM4_cAMP Activity PAM EC50) was 11 nM.
